Experimental data taken from paper PMC8116058, “De novo macrocyclic peptides dissect energy coupling of a heterodimeric ABC transporter by multimode allosteric inhibition” (eLife, 2021).
Positions of bridges follow the written chain, without caps; N, C: chain ends. Non-standard residues stand in square brackets, D forms with d. Residues, ends and D or L forms follow the SMILES beside them. *: point of attachment. 5FAM = O=C1OC2(c3ccc(O)cc3Oc3cc(O)ccc32)c2ccc(C(=O)*)cc21; βAla = NCCC(=O)O

Tested on: TmrAB
Protocol: In order to analyze the binding affinity and specificity of CPs to TmrAB, we established a fluorescence polarization assay. Fluorescein-labeled CP^Fs were incubated with increasing concentrations of TmrAB reconstituted in liposomes at a protein-to-lipid ratio of 1:20 (w/w). […] To address whether the CPs recognize a linear or non-linear epitope, we examined the binding of CP^Fs after disrupting the quaternary and tertiary structure of TmrAB complexes by adding anionic detergent SDS.
Figure 2. […] (A, B) Equilibrium binding analysis. Fluorescence anisotropy of CP^Fs (50 nM) was determined at λex/em = 485/520 nm with increasing concentrations of TmrAB which was reconstituted in liposomes. TmrAB concentrations were calculated based on the random (50/50%) orientation in proteoliposomes ([Stefan et al., 2020]). […] The difference in fluorescence polarization was normalized to free (0%) and 100% bound CP^F. Mean values ± SD (n = 3) are shown, and data were analyzed by a one-site binding model. […] Amounts of TmrA in input (I), flow-through (FT), wash fraction (W), and eluate (E) were analyzed by SDS-PAGE and immunoblotting (α-His). […] Bound TmrAB was eluted in SDS loading buffer and analyzed by SDS-PAGE (silver stain). […] TmrAB in input (I), flow-through (FT), washing fraction (W), and eluate (E) was analyzed by SDS-PAGE and immunoblotting (α-His). […] CP^F-TmrAB complexes were analyzed by gel filtration. […]

Compound | Isolation of TmrAB from solubilized E. coli membranes
CC[C@H](C)[C@@H]1NC(=O)[C@H](Cc2c[nH]c3ccccc23)NC(=O)[C@H](CC(N)=O)NC(=O)[C@H](C)NC(=O)[C@H](CO)NC(=O)[C@@H]2CCCN2C(=O)[C@H](CC(=O)O)NC(=O)[C@@H](Cc2ccc(O)cc2)NC(=O)CSC[C@@H](C(=O)NCC(=O)N[C@@H](CO)C(=O)NCCC(=O)NCCC(=O)N[C@@H](CCCNC(=N)N)C(=O)N[C@@H](CCCCNC(=O)c2ccc3c(c2)C(=O)OC32c3ccc(O)cc3Oc3cc(O)ccc32)C(N)=O)NC(=O)[C@H]([C@@H](C)O)NC(=O)[C@H](CC(C)C)NC(=O)[C@H](CC(C)C)NC(=O)[C@H](C(C)C)NC(=O)[C@H](CC(C)C)NC1=O [CP13] ({CH2CO}-[dY]DPSANWILVLLTCGS[βAla][βAla]RK(5FAM)-NH2; thioether N-14; C-terminus assumed) | isolate intact TmrAB complexes
CC(C)[C@@H]1NC(=O)[C@H](Cc2ccccc2)NC(=O)[C@@H]2CCCN2C(=O)[C@H](CC(N)=O)NC(=O)[C@H](Cc2c[nH]c3ccccc23)NC(=O)[C@H](C(C)C)NC(=O)[C@H](Cc2ccc(O)cc2)NC(=O)[C@H](Cc2ccccc2)NC(=O)[C@@H](Cc2ccc(O)cc2)NC(=O)CSC[C@@H](C(=O)NCC(=O)N[C@@H](CO)C(=O)NCCC(=O)NCCC(=O)N[C@@H](CCCNC(=N)N)C(=O)N[C@@H](CCCCNC(=O)c2ccc3c(c2)C(=O)OC32c3ccc(O)cc3Oc3cc(O)ccc32)C(N)=O)NC(=O)[C@H](CCCCN)NC(=O)[C@H](Cc2ccccc2)NC1=O [CP14] ({CH2CO}-[dY]FYVWNPFVFKCGS[βAla][βAla]RK(5FAM)-NH2; thioether N-12; C-terminus assumed) | isolate intact TmrAB complexes
